Results taken from ChEMBL document CHEMBL1201862, “PubChem BioAssay data set” (2004).
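Results reflect a 48-hour exposure of cells in 96-well plates to compound at five concentrations. GI50: concentration for 50% inhibition of growth.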 Activity calls are given as the source filed them. No stated cut-off is given here; in the data, active = GI50 up to about 1.1 µM and inactive = higher.

Key:
Test in all cases: NCI anticancer screen, dose series, 48 h
[1] = system: NCI-H226
[2] = system: SNB-19
[3] = system: SF-295
[4] = system: OVCAR-8
[5] = system: OVCAR-3
[6] = system: MDA-N
[7] = system: A549
[8] = system: SK-MEL-5
[9] = system: K562
[10] = system: RXF 393
[11] = system: ACHN
[12] = system: T47D
[13] = system: LOX IMVI
[14] = system: U-251
[15] = system: CAKI-1
[16] = system: COLO 205
[17] = system: Hs-578T
[18] = system: SK-MEL-2
[19] = system: UACC-257
[20] = system: SK-MEL-28
[21] = system: HOP-62
[22] = system: BT-549
[23] = system: 786-0
[24] = system: NCI-H460
[25] = system: NCI/ADR-RES
[26] = system: HCC 2998
[27] = system: MCF7
[28] = system: HCT-15
[29] = system: DU-145
[30] = system: HOP-92
[31] = system: SNB-75
[32] = system: HL-60
[33] = system: KM12
[34] = system: SN12C
[35] = system: PC-3
[36] = system: A498
[37] = system: MDA-MB-435
[38] = system: HT-29
[39] = system: SF-539
[40] = system: UO-31
[41] = system: OVCAR-4
[42] = system: IGROV-1
[43] = system: RPMI-8226
[44] = system: SK-OV-3
[45] = system: Malme-3M
[46] = system: NCI-H522
[47] = system: TK-10
[48] = system: OVCAR-5
[49] = system: HCT-116
[50] = system: MDA-MB-231
[51] = system: EKVX
[52] = system: NCI-H23
[53] = system: UACC-62
[54] = system: CCRF-CEM
[55] = system: MOLT-4
[56] = system: SF-268
[57] = system: SW-620
[58] = system: M14
[59] = system: SR
[60] = system: DMS-114
[61] = system: LXFL 529
[62] = system: KM-20L2

In the case of `COc1ccc(Oc2nc3cc(C(F)(F)F)ccc3nc2C(C)C)cc1`, the GI50 [1] is reported as 21 µM (inactive), the GI50 [2] is reported as 33.1 µM (inactive) and the GI50 [3] is reported as 21.2 µM (inactive). For the same compound, the GI50 [4] was 25.2 µM (inactive), the GI50 [5] was 29.6 µM (inactive) and the GI50 [6] was 35.4 µM (inactive). For the same compound, the GI50 [7] was 31.1 µM (inactive), the GI50 [8] was 22.2 µM (inactive) and the GI50 [9] was 24.6 µM (inactive). The GI50 [10] was 15.8 µM (inactive), the GI50 [11] was 26.2 µM (inactive) and the GI50 [12] was 15.1 µM (inactive). The GI50 [13] was 15.3 µM (inactive), the GI50 [14] was 23.1 µM (inactive) and the GI50 [15] was 35.2 µM (inactive). For the same compound, the GI50 [16] was 16 µM (inactive), the GI50 [17] was 31.6 µM (inactive) and the GI50 [18] was 18.5 µM (inactive). The GI50 [19] was 26.1 µM (inactive), the GI50 [20] was 48 µM (inactive) and the GI50 [21] was 40.4 µM (inactive). For the same compound, the GI50 [22] was 22.4 µM (inactive), the GI50 [23] was 36 µM (inactive) and the GI50 [24] was 23.2 µM (inactive). The GI50 [25] was 19.4 µM (inactive), the GI50 [26] was 20.1 µM (inactive) and the GI50 [27] was 18.8 µM (inactive). The GI50 [28] was 23.8 µM, the GI50 [29] was 27.2 µM (inactive) and the GI50 [30] was 17.2 µM (inactive). For the same compound, the GI50 [31] was 25.4 µM (inactive), the GI50 [32] was 18.7 µM (inactive) and the GI50 [33] was 31.6 µM (inactive). For the same compound, the GI50 [34] was 24.5 µM (inactive), the GI50 [35] was 41.6 µM (inactive) and the GI50 [36] was 20 µM (inactive). The GI50 [37] was 30.1 µM (inactive), the GI50 [38] was 19 µM (inactive) and the GI50 [39] was 41.5 µM (inactive). The GI50 [40] was 32.6 µM (inactive), the GI50 [41] was 34.7 µM (inactive) and the GI50 [42] was 23.3 µM (inactive). The GI50 [43] was 19.4 µM (inactive), the GI50 [44] was 38.7 µM (inactive) and the GI50 [45] was 24.7 µM (inactive). For the same compound, the GI50 [46] was 19.1 µM (inactive), the GI50 [47] was 81.7 µM (inactive) and the GI50 [48] was 24.9 µM (inactive). The GI50 [49] was 31 µM (inactive), the GI50 [50] was 24.7 µM (inactive) and the GI50 [51] was 19.2 µM (inactive). For the same compound, the GI50 [52] was 21 µM (inactive), the GI50 [53] was 28.2 µM (inactive) and the GI50 [54] was 39.6 µM (inactive). The GI50 [55] was 15.7 µM (inactive), the GI50 [56] was 32.7 µM (inactive) and the GI50 [57] was 30.8 µM (inactive). For the same compound, the GI50 [58] was 31.6 µM (inactive) and the GI50 [59] was 16.7 µM (inactive).

For `O=C(NN1C(=O)C(Cl)C1c1ccccc1O)c1ccccc1O` (stereo unspecified), the GI50 [2] was 0.365 µM (active), the GI50 [3] was 26.8 µM (inactive) and the GI50 [4] was 26.4 µM (inactive). The GI50 [5] was 3.13 µM (inactive), the GI50 [7] was 17.8 µM (inactive) and the GI50 [8] was 29.4 µM (inactive). For the same compound, the GI50 [9] was 32.4 µM (inactive), the GI50 [10] was 63.5 µM (inactive) and the GI50 [14] was 16.2 µM (inactive). For the same compound, the GI50 [16] was 21.4 µM (inactive), the GI50 [18] was 19.8 µM (inactive) and the GI50 [19] was 22.2 µM (inactive). For the same compound, the GI50 [20] was 22.3 µM (inactive), the GI50 [21] was 29 µM (inactive) and the GI50 [24] was 5.33 µM (inactive). The GI50 [30] was > 100 µM (inactive), the GI50 [31] was 49.9 µM (inactive) and the GI50 [32] was 6.11 µM (inactive). For the same compound, the GI50 [33] was 7.31 µM (inactive), the GI50 [60] was 6.82 µM (inactive) and the GI50 [61] was 41.4 µM (inactive). For the same compound, the GI50 [62] was 4.51 µM (inactive), the GI50 [34] was 89.5 µM (inactive) and the GI50 [38] was 6.61 µM (inactive). The GI50 [39] was 16.3 µM (inactive), the GI50 [40] was 21.3 µM (inactive) and the GI50 [41] was 22.5 µM (inactive). The GI50 [42] was 30.6 µM (inactive), the GI50 [43] was 12.5 µM (inactive) and the GI50 [44] was 16.1 µM (inactive). The GI50 [45] was 13.9 µM (inactive), the GI50 [46] was 29 µM (inactive) and the GI50 [47] was 47.5 µM (inactive). The GI50 [49] was 3.69 µM (inactive), the GI50 [51] was 29.4 µM (inactive) and the GI50 [52] was 42.5 µM (inactive). The GI50 [53] was 27.9 µM (inactive), the GI50 [54] was 5.12 µM (inactive) and the GI50 [55] was 23.2 µM (inactive). For the same compound, the GI50 [56] was 44.1 µM (inactive), the GI50 [57] was 32.7 µM (inactive) and the GI50 [58] was 18.3 µM (inactive). The GI50 [59] was 17.8 µM (inactive).

`NC(CCC(=O)NC(CSCC1C(=O)Nc2ccccc21)C(=O)NCC(=O)O)C(=O)O` (stereo unspecified) was tested, and the GI50 [1] was 7.23 µM (inactive), the GI50 [2] was 44.3 µM (inactive) and the GI50 [3] was 15.5 µM (inactive). For the same compound, the GI50 [4] was 6.15 µM (inactive), the GI50 [5] was 5.62 µM (inactive) and the GI50 [6] was 6.37 µM (inactive). For the same compound, the GI50 [7] was 7.43 µM (inactive), the GI50 [8] was 14.8 µM (inactive) and the GI50 [9] was 1.6 µM (inactive). The GI50 [10] was 0.855 µM (active), the GI50 [11] was 7.41 µM (inactive) and the GI50 [12] was 9.4 µM (inactive). The GI50 [13] was 1.21 µM (inactive), the GI50 [14] was 7.62 µM (inactive) and the GI50 [15] was 4.41 µM (inactive). For the same compound, the GI50 [16] was 5.12 µM (inactive), the GI50 [17] was 48 µM (inactive) and the GI50 [18] was 9.53 µM (inactive). For the same compound, the GI50 [19] was 8.11 µM (inactive), the GI50 [20] was 6.58 µM (inactive) and the GI50 [21] was 11.9 µM (inactive). The GI50 [22] was 6.79 µM (inactive), the GI50 [23] was 3.87 µM (inactive) and the GI50 [24] was 14.8 µM (inactive). For the same compound, the GI50 [25] was 7.53 µM (inactive), the GI50 [26] was 5.75 µM (inactive) and the GI50 [27] was 3.75 µM (inactive). The GI50 [28] was 4.72 µM, the GI50 [29] was 6.17 µM (inactive) and the GI50 [30] was 4.16 µM (inactive). For the same compound, the GI50 [31] was 2.67 µM (inactive), the GI50 [32] was 23.6 µM (inactive) and the GI50 [33] was 9.82 µM (inactive). For the same compound, the GI50 [34] was 5.86 µM (inactive), the GI50 [35] was 21.6 µM (inactive) and the GI50 [36] was 13.8 µM (inactive). The GI50 [37] was 6.31 µM (inactive), the GI50 [38] was 6.78 µM (inactive) and the GI50 [39] was 6 µM (inactive). For the same compound, the GI50 [40] was 0.466 µM (active), the GI50 [41] was 8.41 µM (inactive) and the GI50 [42] was 5.52 µM (inactive). For the same compound, the GI50 [43] was 2.02 µM (inactive), the GI50 [44] was 21 µM (inactive) and the GI50 [45] was 6.3 µM (inactive). For the same compound, the GI50 [46] was 0.968 µM (active), the GI50 [47] was 7.52 µM (inactive) and the GI50 [48] was 12.4 µM (inactive). For the same compound, the GI50 [49] was 4.89 µM (inactive), the GI50 [50] was 7.53 µM (inactive) and the GI50 [51] was 11.9 µM (inactive). For the same compound, the GI50 [52] was 5.41 µM (inactive), the GI50 [53] was 8.32 µM (inactive) and the GI50 [54] was 5.27 µM (inactive). For the same compound, the GI50 [55] was 5.35 µM (inactive), the GI50 [56] was 5.92 µM (inactive) and the GI50 [57] was 4.28 µM (inactive). The GI50 [58] was 5.21 µM (inactive) and the GI50 [59] was 0.386 µM (active).
